Minimal effective dose, MIC and ED50 data for 9 compounds are collected here from US4044043A, “Derivatives of 9-oxo-13-trans-prostenoic acid esters” (American Cyanamid Company, priority 1975, dated 1977).

Test [1] relates to diastolic blood pressure. Description: Prostaglandin-like hypotensive activity in anesthetized rats (minimal dose for about 10 mm. decrease in diastolic blood pressure). The test is classed as in vivo, Male Wistar strain rats. Conditions: Rattus norvegicus; intravenous; decrease of about 10 mm. in diastolic blood pressure. The method, boiled down: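 Male Wistar rats (~250 g), pentobarbital 30 mg./kg. i.v. and hexamethonium 2 mg./kg. i.v., iliac artery cannulated for blood pressure. Compounds in saline-Tween 80 given i.v. at 0.1–10.0 mg./kg.; value is the minimal dose giving ~10 mm. drop in diastolic pressure.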

Test [2] relates to Mycobacterium smegmatis ATCC 606. As to the kind of experiment: agar-dilution streak-plate antimicrobial assay. The test is classed as cell-based. Conditions: Mycolicibacterium smegmatis, ATCC606, read-out: Minimal inhibitory conc. (6). A digest of the protocol:
(§1)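 Test solutions at 2.5 mg/ml serially diluted two-fold, then 1 ml mixed into 9 ml nutrient agar suited to bacteria or fungi. Plates streaked with overnight broth cultures or saline spore suspensions, then incubated. MIC (μg/ml) is the concentration giving complete growth inhibition by visual inspection.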

The test system of test [3] is Staphylococcus aureus Rose ATCC 14154. Description: agar-dilution streak-plate antimicrobial assay. In kind it is cell-based. Conditions: ATCC14154, read-out: Minimal inhibitory conc. (7). The method, boiled down:
as §1

Test [4] relates to Streptococcus pyogenes C 203. As to the kind of experiment: agar-dilution streak-plate antimicrobial assay. The test is classed as cell-based. Conditions: C203, read-out: Minimal inhibitory conc. (8). A digest of the protocol: as §1
For test [5], the system named is Trichophyton mentagrophytes E 11. As to the kind of experiment: agar-dilution streak-plate antimicrobial assay. In kind it is cell-based. Conditions: E11, read-out: Minimal inhibitory conc. (4). The method, boiled down: as §1
For test [6], the system named is Trichophyton tonsurans NIH 662. Description: agar-dilution streak-plate antimicrobial assay. Conditions: NIH662, read-out: Minimal inhibitory conc. (3). The test is classed as cell-based. The method, boiled down: as §1
The subject of test [7] is bronchospasms elicited by 5-hydroxytryptamine. Description: Bronchodilator Activity (Konzett Assay) against 5-hydroxytryptamine. The test is classed as in vivo, guinea pigs. Conditions: Cavia porcellus; three logarithmic cumulative intravenous doses. A digest of the protocol: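 Guinea pigs given intravenous spasmogen (5-hydroxytryptamine, histamine or acetylcholine) per Konzett procedure. ED50 derived from three logarithmic cumulative intravenous doses of test compound.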

The test system of test [8] is Microsporum gypseum ATCC 14683. As to the kind of experiment: agar-dilution streak-plate antimicrobial assay. The test is classed as cell-based. Conditions: Nannizzia gypsea, ATCC14683, read-out: Minimal inhibitory conc. (2). A digest of the protocol:
as §1

Test [9] concerns Microsporum canis ATCC 10214. As to the kind of experiment: agar-dilution streak-plate antimicrobial assay. Conditions: ATCC10214, read-out: Minimal inhibitory conc. (1). The test is classed as cell-based. A digest of the protocol: as §1
For test [10], the system named is Trichophyton rubrum E 97. Description: agar-dilution streak-plate antimicrobial assay. In kind it is cell-based. Conditions: E97, read-out: Minimal inhibitory conc. (5). A digest of the protocol:
as §1

In brackets after ≈: the same amount, converted by molar mass.

Consider `CCCCCC/C=C/[C@@H]1CCCC(=O)[C@H]1CCCCCCC(=O)O` (relative stereo) [9-oxo-10a-homo-13-trans-prostenoic acid], for which, in [1], the minimal effective dose turned out to be 0.2 mg/kg. The MIC was found to be 25 µg/mL (≈ 74.3 µM) in test [2]; 100 µg/mL (≈ 297 µM) in test [3]; 10 µg/mL (≈ 29.7 µM) in test [4]; 100 µg/mL (≈ 297 µM) in [5]; 100 µg/mL (≈ 297 µM) in test [6]. This compound returned an ED50 in test [7] greater than 10.1 mg/kg.
Turning to `CCC/C=C/[C@H]1CCC(=O)[C@@H]1CCCCCCC(=O)O` (relative stereo) [9-oxo-18,19,20-trinor-13-trans-prostenoic acid], the MIC in test [8], in test [4], in [5] and in test [6] was 250 µg/mL (≈ 892 µM) throughout. The ED50 in [7] amounted to 0.484 mg/kg.
As to `CC(C)CC/C=C/[C@@H]1CCC(=O)[C@H]1CCCCCCC(=O)O` (relative stereo) [17-methyl-9-oxo-19,20-dinor-13-trans-prostenoic acid], the minimal effective dose in test [1] was 0.5 mg/kg. Also, the MIC in test [9] was 50 µg/mL (≈ 162 µM); in test [8] it was 50 µg/mL (≈ 162 µM); in [2] it was 62 µg/mL (≈ 201 µM); in test [3], 250 µg/mL (≈ 810 µM); in [4], 62 µg/mL (≈ 201 µM); in test [5], 25 µg/mL (≈ 81 µM). The MIC in test [10] is 50 µg/mL (≈ 162 µM); in test [6] it was 25 µg/mL (≈ 81 µM). The compound further returned an ED50 in test [7] of 2.8 mg/kg.
`CC/C=C\CC/C=C/[C@@H]1CCC(=O)[C@H]1CCCCCCC(=O)O` (relative stereo) [9-oxo-13-trans-17-cis-prostadienoic acid] displayed a minimal effective dose in [1] of 0.2 mg/kg. The MIC in test [9] was found to be 125 µg/mL (≈ 390 µM); in test [8] it was 62 µg/mL (≈ 193 µM); in [2] it was 62 µg/mL (≈ 193 µM); in test [3], 250 µg/mL (≈ 780 µM); in test [4] it was 62 µg/mL (≈ 193 µM); in [5], 62 µg/mL (≈ 193 µM). The figures for the MIC in test [10] and in [6] were 125 µg/mL (≈ 390 µM) and 62 µg/mL (≈ 193 µM), respectively. The compound also had an ED50 in test [7] of 0.422 mg/kg.
Turning to `O=C(O)CCCCCC[C@@H]1C(=O)CC[C@H]1/C=C/CCCCl` (relative stereo) [20-chloro-9-oxo-17,18,19-trinor-13-trans-prostenoic acid], the minimal effective dose in [1] lay within 2 to 8 mg/kg. Besides, the MIC in test [9], in test [8], in test [5], in test [10] and in test [6] was 250 µg/mL (≈ 794 µM) throughout. Moreover, the ED50 in [7] was 1.48 mg/kg.
In test [1], `CCCCC/C=C/[C@H]1CCC(=O)[C@@H]1CCCCCCC(=O)O` (relative stereo) [9-oxo-20-nor-13-trans-prostenoic acid] registered a minimal effective dose of 0.5 to 1 mg/kg. For the same compound, the MIC in [9] was 50 µg/mL (≈ 162 µM); in test [8], 50 µg/mL (≈ 162 µM); in test [2] it was 62 µg/mL (≈ 201 µM); in [3], 250 µg/mL (≈ 810 µM); in [4], 62 µg/mL (≈ 201 µM); in [5], 25 µg/mL (≈ 81 µM). Moreover, the MIC in test [10] turned out to be 50 µg/mL (≈ 162 µM); in test [6] it was 25 µg/mL (≈ 81 µM). The compound further gave an ED50 in [7] of 0.152 mg/kg.
`CCCCCC/C=C/[C@H]1CCC(=O)[C@@H]1CCCCCCC(=O)O` (relative stereo) [9-oxo-13-trans-prostenoic acid]: the minimal effective dose in test [1] was 0.4 mg/kg. Besides, the MIC in test [9] was 50 µg/mL (≈ 155 µM); in test [8] it was 50 µg/mL (≈ 155 µM); in [2], 62 µg/mL (≈ 192 µM); in test [3], 250 µg/mL (≈ 775 µM); in [4] it was 62 µg/mL (≈ 192 µM); in [5] it was 50 µg/mL (≈ 155 µM). Further, the results for the MIC in test [10] and in [6] were 250 µg/mL (≈ 775 µM) and 50 µg/mL (≈ 155 µM), respectively. The compound also had an ED50 in [7] of 0.077 mg/kg.
For the compound `CCCCCCC/C=C/[C@@H]1CCC(=O)[C@H]1CCCCCCC(=O)O` (relative stereo) [20-methyl-9-oxo-13-trans-prostenoic acid], the minimal effective dose in test [1] was 0.5 to 2 mg/kg. In addition, the MIC in [9] was found to be 100 µg/mL (≈ 297 µM); in test [8], 50 µg/mL (≈ 149 µM); in test [2], 25 µg/mL (≈ 74.3 µM); in test [3], 50 µg/mL (≈ 149 µM); in test [4], 10 µg/mL (≈ 29.7 µM); in test [5], 25 µg/mL (≈ 74.3 µM). Moreover, the results for the MIC in test [10] and in test [6] were 100 µg/mL (≈ 297 µM) and 25 µg/mL (≈ 74.3 µM), respectively. The compound further returned an ED50 in [7] of 3.42 mg/kg.
In [1], `O=C(O)CCCCCC[C@H]1C(=O)CC[C@@H]1/C=C/CCCCCCCl` (relative stereo) [20-chloro-9-oxo-13-trans-prostenoic acid] yielded a minimal effective dose of 0.5 mg/kg. Besides, the MIC in test [9] was found to be 250 µg/mL (≈ 700 µM); in [8] it was 62 µg/mL (≈ 174 µM); in test [2] it was 250 µg/mL (≈ 700 µM); in [3] it was 250 µg/mL (≈ 700 µM); in [4], 62 µg/mL (≈ 174 µM); in test [5] it was 62 µg/mL (≈ 174 µM). Moreover, the MIC in test [10] was 62 µg/mL (≈ 174 µM); in test [6] it was 16 µg/mL (≈ 44.8 µM). The compound further had an ED50 in [7] of 2.39 mg/kg.
